The values that follow come from patent US10485769B2, “Cholesteryl ester transfer protein (CETP) inhibition in the treatment of cancer” (KING ABDULLAH UNIVERSITY OF SCIENCE AND TECHNOLOGY, priority 2015, dated 2019).

The test system of data set [1] is MCF-7 CETP siRNA cells. The data set is described as follows: MMP, caspase-3/7 activity and apoptosis in CETP knockdown MCF-7 cells. The settings on record: for caspases-3/7 activity / increase of level of apoptosis: 10 μM PL or AP; for caspases-3/7 activity: CETP knockdown; for increase of level of apoptosis: MCF-7 CETP siRNA cells; for reduction in MMP: 10 μM, CETP knockdown compared to Ctrl siRNA cells. The format is cell-based, human. The procedure: FIG. 10: The effect of CETP mRNA silencing on MMP (A), Capase-3/7 activity (B) and apoptosis in MCF-7 (C) and BJ (D) untransfected, cntl siRNA and CETP knockout cells after treatment with 10 μM PL or AP. Values represent the means±SD of three independent experiments.
FIG. 12: The effect of CETP mRNA knockout on Capase-3/7 activity (A) and apoptosis (B) in MCF-7 cntl siRNA and CETP knockout cells after treatment with 25 μM tamoxifen for 24 h. Values represent the means±SD of three independent experiments.
Since, as shown above, CETP is required for optimal growth of MCF-7 cells, we further hypothesized that CETP may help cancer cell to resist/escape apoptotic signals thus preventing cell death. Several apoptotic markers such as MOMP, phosphatidylserine exposure and caspase-3/7 activity were tested to establish a link between CETP and apoptosis.
Next, we intended to see if CETP silencing increased sensitivity of MCF-7 cells to apoptosis.
To test if effect of CETP knockout on apoptosis in MCF-7 is limited to AP, we treated the CETP knockout MCF-7 cells with tamoxifen (a known first line drug for breast cancer treatment). […] This observation was not limited to PL and AP as similar observations were made in CETP knockdown cells treated with tamoxifen (FIG. 12).

Another data set has as its system MCF-7 cells. The data set is described as follows: APOPercentage assay, apoptosis in MCF-7 cells. The settings on record: 10 μM. It is filed as cell-based, human. The protocol: FIG. 5: Cholesterol depletion by PL and AP. BJ, BT20 and MCF-7 cells were treated with 10 μM PL or AP for 2 h and cholesterol levels were determined with the Amplex Red Cholesterol kit as per manufacturer's instructions. Cells treated with 5 mg/ml MBCD was used as a positive control and fluorescence was measured with a Tecan plate reader. MCF-7 cells were pre-incubated with 1 mM cholesterol for 1 h followed by treatment with 10 μM PL or AP for 2 h (A). Apoptosis was determined by flow cytometry with the APOPercentage kit or Cells treated with MBCD and 5 mM H2O2 served as positive controls (B). Values represent the means±SD of three independent experiments.
Next we asked if addition of cholesterol can rescue MCF-7 cells from undergoing apoptosis when treated with PL or AP.

Data set [2] has as its system lipid rafts of MCF-7 cells. The data set is described as follows: Lipid raft GM1 staining (CT-B Alexa 488). It is filed as cell-based, human. The settings on record: 10 μM, over time (10 min to 2 h). The protocol: FIG. 4: Lipid raft GM1 staining in MCF-7 cells with the Vybrant® Alexa Fluor® 488 Lipid Raft Labeling Kit. Cells were cultured in 96-well plates and stained with CT-B Alexa 488 in untreated cells, and after treatment with 10 μM PL or AP for 10 min, 30 min, 1 h and 2 h.
Cholesterol plays an integral role in the formation of lipid rafts, steroid hormone synthesis and cell membrane formation. […] Cancer cells have a greater affinity for cholesterol to pace with demands of proliferation and synthesis of new membranes and lipid rafts. Pathway predictions derived from microarray expression data pointed at the impairment of cholesterol related processes by AP. To confirm whether cholesterol related pathways were affected by PL or AP, we performed lipid raft staining in MCF-7 cells and cholesterol quantitation in both MCF-7 cells and plasma samples obtained from mice. […].

The subject of a further data set is MCF-7 tumors. Description: Efficacy in MCF-7 xenograft nude mouse model of BC. The settings on record: 21 days. The format is in vivo, nude mice.
Data set [3] is described as follows: Toxicity in MCF-7 xenograft nude mice (survival, body weight, ALT, AST). The settings on record: for survival of animals: 5 animals per group.
Method: (§1) FIG. 3: Comparative efficacy and toxicity study in MCF-7 xenograft nude mouse model of BC. The efficacy of single i.p. injection of vehicle, PL (2 mg/kg) and AP (5 mg/kg) in 5 mice in each group was compared over a period of 21 days.
(§2) MCF-7 tumors grown up to 300 mm3 in four nude mice were harvested, dissected into 1-2 mm3 fragments and implanted into the study group for further testing. Nude mice (with tumor volume of 150 mm3) were treated with 25% Polyethylene glycol (PEG) 400 as vehicle, 2 mg/kg PL and 5 mg/kg AP for 21 days during which tumor volume, body weight and, at the time of sacrifice, tumor weight was measured.
Data set [4] deals with MCF-7 CETP siRNA cells. The data set is described as follows: Total cholesterol in CETP knock-out MCF-7 cells, Amplex Red. The format is cell-based, human. The settings on record: 10 μM. The procedure: FIG. 8: Levels of total cholesterol in MCF-7 control (cntl) siRNA and CETP knock-out cells after treatment with 10 μM PL or AP were determined with the Amplex Red assay kit. Values represent the means±SD of three independent experiments.
We measured the amount of cholesterol in CETP knock-out MCF-7 untreated and/or treated with 10 μM AP and PL. […] (FIG. 8).

For another data set, the target named is T1, CETP (Homo sapiens, UniProt P11597).
T1 construct: endogenous in cells; host or cells: MCF-7
T1 sequence (P11597 18-493): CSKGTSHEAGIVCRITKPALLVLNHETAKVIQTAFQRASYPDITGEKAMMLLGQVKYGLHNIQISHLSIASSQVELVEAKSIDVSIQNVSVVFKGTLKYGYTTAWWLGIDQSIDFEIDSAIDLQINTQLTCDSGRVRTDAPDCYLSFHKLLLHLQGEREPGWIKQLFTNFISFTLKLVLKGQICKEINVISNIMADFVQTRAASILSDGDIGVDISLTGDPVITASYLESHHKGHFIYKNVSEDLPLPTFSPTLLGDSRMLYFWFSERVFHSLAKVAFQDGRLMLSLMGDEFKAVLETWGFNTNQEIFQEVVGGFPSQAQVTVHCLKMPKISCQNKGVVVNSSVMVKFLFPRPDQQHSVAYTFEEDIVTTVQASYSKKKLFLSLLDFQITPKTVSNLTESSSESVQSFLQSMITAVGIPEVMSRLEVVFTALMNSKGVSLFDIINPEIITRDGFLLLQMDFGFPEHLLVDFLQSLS
The data set is described as follows: Thermal shift assay (TSA) in MCF-7 cells. The format is binding. The settings on record: 10 μM, two hours, 56° C. to 70° C.; untreated decreases around 64° C. The protocol:
FIG. 14: Illustration of the amount of stabilized CETP protein in the presence of compounds using TSA. MCF-7 cells were left untreated (Untx) and were treated with 10 μM of AP/PL for two hours. TSA was performed using temperature range 56° C. to 70° C. with 2° C. intervals. The western blotting was performed after the assay and CETP was detected. The experiment was performed in duplicate.
Thermal shift assay (TSA) captures the drug protein binding using the fact that the thermostability of the protein is changed after ligand binding. We did three runs of TSA [20] to identify direct binding of AP with CETP (FIG. 14). […] Further studies are needed to study the effects of thermostability on function of CETP.

The mark [5] stands for this setting: 2 h, after pre-incubation with 1 mM cholesterol for 1 h.
Where [6] appears, read: 2 h, without addition of cholesterol.
Setting [7] is: 2 mg/kg PL, 5 mg/kg AP, 21 days.

Method for MCF-7 tumors: as §1, §2

In the case of `CC(=O)Oc1cccc2c1C(=O)C=C(C)C2=O` [AP, Acetyl Plumbagin], in the data set on MCF-7 CETP siRNA cells [1], the caspases-3/7 activity entry is on record as “significantly increased”, the “increase of level of apoptosis” value came to 10% and the “reduction in MMP” value is 17%. In the data set with MCF-7 cells (2 h), this compound yielded a level of apoptosis of around 20%. Further, in the data set on MCF-7 cells (setting [5]), the apoptosis result is “negligible”. In the data set on MCF-7 cells (setting [6]), this compound registered an apoptosis of 20%. Moreover, in the data set on MCF-7 cells (6 h), the level of apoptosis is given as around 45%. The “distribution of lipid rafts (GM1 in plasma membranes)” value in data set [2] was “disrupted”. The “reduction of tumor volume” value in the data set with MCF-7 tumors (2 mg/kg PL, 5 mg/kg AP) is on record as 37%. Besides, the “inhibition of tumor growth” value in the data set on MCF-7 tumors (5 mg/kg AP) is given as 45%. Moreover, in data set [3] (setting [7]), the survival of animals result is listed as “survived”. In data set [3] (5 mg/kg AP), the “reduction of ALT activity” value stood at 36% and the “reduction of AST activity” value is 7%. Also, in data set [3] (5 mg/kg AP, 21 days), the body weight entry is on record as “remained unaffected”. Further, the “total cholesterol in knock-out cells versus control siRNA cells” value with MCF-7 CETP siRNA cells [4] was “did not show results any different”. Besides, on CETP, the “thermostability of CETP protein” value is “more stable even at 70 °C”.

As to `CC1=CC(=O)c2c(O)cccc2C1=O` [PL, 5-hydroxy-2-methyl-1,4-naphthoquinone, reference compound], in the data set with MCF-7 CETP siRNA cells [1], the caspases-3/7 activity result was “significantly increased”, the “increase of level of apoptosis” value turned out to be 10% and the “reduction in MMP” value is 13%. Further, in the data set on MCF-7 cells (2 h), the level of apoptosis was around 20%. In addition, the apoptosis in the data set with MCF-7 cells (setting [5]) was determined as 10%. In the data set on MCF-7 cells (setting [6]), this compound came in with an apoptosis of 30%. In the data set on MCF-7 cells (6 h), this compound displayed a level of apoptosis of around 45%. The “distribution of lipid rafts (GM1 in plasma membranes)” value in data set [2] is recorded as “disrupted”. Also, the “reduction of tumor volume” value with MCF-7 tumors (2 mg/kg PL, 5 mg/kg AP) is reported as “approximately 17%”. Also, the “tumor weight in comparison to vehicle” value with MCF-7 tumors (2 mg/kg PL) is on record as “no difference”. Moreover, in data set [3] (2 mg/kg PL), the ALT activity result is on record as “increased” and the AST activity result is recorded as “increased”. Further, the survival of animals entry in data set [3] (setting [7]) is “one mouse died”. Further, in data set [3] (5 mg/kg PL, within four to six days), the “mice succumbed to treatment due to toxicity” value was 8 mice. For the same compound, in the data set with MCF-7 CETP siRNA cells [4], the “total cholesterol in knock-out cells versus control siRNA cells” value is recorded as “did not show results any different”. The “thermostability of CETP protein” value on CETP was “more stable even at 70 °C”.
